Measured values from patent US7649012B2, “Compounds, pharmaceutical compositions containing same, and methods of use for same” (FASgen, Inc., priority 2002, dated 2010).
≈ marks a conversion by molar mass, not a printed value. Where two headings read alike, the source gives them in different places.

Columns and labels:
[1] = Weight loss screen in Balb/C mice; format: in vivo; settings: for change in vivo at 60 mg/kg / change in vivo at 30 mg/kg: Mus musculus, read-out: Weight Loss; for change in vivo at 60 mg/kg: ip
Protocol: Balb/C mice (Jackson Labs) are utilized for the initial weight loss screening. Animals are housed in temperature and 12 hour day/night cycle rooms and fed mouse chow and water ad lib. Three mice are utilized for each compound tested with vehicle controls in triplicate per experiment. For the experiments, mice are housed separately for each compound tested three mice to a cage. […] Mice are observed and weighed daily; average weights and standard errors are computed with Excel (Microsoft). The experiment continues until treated animals reach their pretreatment weights. […]

[2] = system: MCF-7 human breast cancer cells; assay: [14C]acetate incorporation into total lipids; format: cell-based; settings: Homo sapiens, MCF7, [14C]acetate incorporation into lipids
Protocol: This assay measures the incorporation of [^14C]acetate into total lipids and is a measure of fatty acid synthesis pathway activity in vitro. It is utilized to measure inhibition of fatty acid synthesis in vitro.
MCF-7 human breast cancer cells cultured as above, are plated at 5×10^4 cells per well in 24-well plates. […] DMSO is added to triplicate wells for a vehicle control. C75 is run at 5 and 10 μg/ml in triplicate as positive controls. After 4 hours of incubation, 0.25 μCi of [^14C]acetate (10 μl volume) is added to each well.
After 2 hours of additional incubation, medium is aspirated from the wells and 800 μl of chloroform:methanol (2:1) and 700 μl of 4 mM MgCl2 is added to each well. Contents of each well are transferred to 1.5 Eppendorf tubes, and spun at full-speed for 2 minutes in a high-speed Eppendorf Microcentrifuge 5415D. After removal of the aqueous (upper) layer, an additional 700 μl of chloroform:methanol (2:1) and 500 μl of 4 mM MgCl2 are added to each tube and then centrifuged for 1 minutes as above. The aqueous layer is removed with a Pasteur pipette and discarded. An additional 400 μl of chloroform:methanol (2:1) and 200 μl of 4 mM MgCl2 are added to each tube, then centrifuged and aqueous layer is discarded. The lower (organic) phase is transferred into a scintillation vial and dried at 40° C. under N2 gas. Once dried, 3 ml of scintillant (APB #NBC5104) is added and vials are counted for ^14C. The Beckman Scintillation counter calculates the average cpm values for triplicates.
The IC50 for the compounds is defined as the concentration of drug leading to a 50% reduction in [^14C]acetate incorporation into lipids compared to controls. […] The average cpm values are computed by the Beckman scintillation counter (Model LS6500) for each compound concentration. Computation of linear regression, best-fit line, r^2, and 95% confidence intervals are calculated using Prism Version 3.0 (Graph Pad Software).

[3] = system: Pseudomonas aeruginosa (ATCC # 27853); assay: Broth microdilution MIC; format: cell-based; settings: for PSAE/MH(MIC): Mueller Hinton Broth; for PSAE/Tsoy(MIC): Trypticase Soy Broth
Protocol: (§1) A broth microdilution assay is used to assess the antimicrobial activity of the compounds. […] Microorganisms tested include Staphylococcus aureus (ATCC # 29213), Enterococcus faecalis (ATCC # 29212), Pseudomonas aeruginosa (ATCC # 27853), and Escherichia coli (ATCC # 25922). The assay is performed in two growth media, Mueller Hinton Broth and Trypticase Soy Broth. […] Colonies are suspended in sterile broth so that the turbidity matches the turbidity of a 0.5 McFarland standard. The inoculum is diluted 1:10 in sterile broth (Mueller Hinton or Trypticase soy) and 195 ul is dispensed per well of a 96-well plate. The compounds to be tested, dissolved in DMSO, are added to the wells in 5 ul volume at the following concentrations: 25, 12.5, 6.25, 3.125, 1.56 and 0.78 ug/ml in duplicate. Additional concentrations are tested if required. 5 ul of DMSO added to duplicate wells are the vehicle control. Serial dilutions of positive control compounds, vancomycin (E. faecalis and S. aureus) and tobramycin (E. coli and P. aeruginosa), are included in each run. After 24 hours of incubation at 37° C., plates are read at OD600 on a Molecular Devices SpectraMax Plus Spectrophotometer. Average OD600 values are computed using SOFTmax Pro Software (Molecular Devices) and MIC values are determined by linear regression analysis using Prism version 3.02 (Graph Pad Software, San Diego).

[4] = system: Escherichia coli (ATCC # 25922); assay: Broth microdilution MIC; format: cell-based; settings: for MIC: Escherichia coli, ATCC25922
Protocol: as §1

[5] = system: Enterococcus faecalis (ATCC # 29212); assay: Broth microdilution MIC; format: cell-based; settings: for MIC: Enterococcus faecalis, ATCC29212
Protocol: as §1

[6] = system: Staphylococcus aureus (ATCC # 29213); assay: Broth microdilution MIC; format: cell-based; settings: for MIC: Staphylococcus aureus, ATCC29213
Protocol: as §1

[7] = system: MCF-7 human breast cancer cells; assay: XTT cytotoxicity assay; format: cell-based; settings: MCF7, MCF-7, 72 hours, some cells marked (M)
Protocol: The XTT assay is a non-radioactive alternative for the [^51 Cr] release cytotoxicity assay. XTT is a tetrazolium salt that is reduced to a formazan dye only by metabolically active, viable cells. The reduction of XTT is measured spectrophotometrically as OD490-OD650.
To measure the cytotoxicity of specific compounds against cancer cells, 9×10^3 MCF-7 human breast cancer cells, obtained from the American Type Culture Collection are plated per well in 96 well plates in DMEM medium with 10% fetal bovine serum, insulin, penicillin, and streptomycin. Following overnight culture at 37° C. and 5% CO2, the compounds to be tested, dissolved in DMSO, are added to the wells in 1 μl volume at the following concentrations: 80, 40, 20, 10, 5, 2.5, 1.25, and 0.625 μg/ml in triplicate. Additional concentrations are tested if required. 1 μl of DMSO is added to triplicate wells are the vehicle control. C75 is run at 40, 20, […], and 5 μg/ml in triplicate as positive controls. After 72 hours of incubation, cells are incubated for 4 hours with the XTT reagent as per manufacturer's instructions (Cell Proliferation Kit II (XTT) Roche). Plates are read at OD490 and OD650 on a Molecular Devices SpectraMax Plus Spectrophotometer. Three wells containing the XTT reagent without cells serve as the plate blank. XTT data are reported as OD490-OD650-Averages and standard error of the mean are computed using SOFTmax Pro software (Molecular Dynamics).
The IC50 for the compounds is defined as the concentration of drug leading to a 50% reduction in OD490-OD650 compared to controls. The OD490-OD650 are computed by the SOFTmax PRO software (Molecular Devices) for each compound concentration. IC50 is calculated by linear regression, plotting the FAS activity as percent of control versus drug concentrations. Linear regression, best-fit line, r^2, and 95% confidence intervals are determined using Prism Version 3.0 (Graph Pad Software).

[8] = 24 h, 60 mg/kg intraperitoneally, day1
[9] = Mueller Hinton Broth, read-out: SA/MH(MIC)
[10] = Trypticase Soy Broth, read-out: SA/Tsoy(MIC)
[11] = Mueller Hinton Broth, read-out: EF/MH(MIC)
[12] = Trypticase Soy Broth, read-out: Ecoli/Tsoy(MIC)
[13] = Trypticase Soy Broth, read-out: EF/Tsoy(MIC)

Row | Structure (SMILES) | change in vivo at 60 mg/kg [1, 8] | IC50 [2] | PSAE/MH(MIC) [3] | PSAE/Tsoy(MIC) [3] | Ecoli/MH(MIC) ([4]; Mueller Hinton Broth) | Ecoli/Tsoy(MIC) ([4]; Trypticase Soy Broth) | EF/Tsoy(MIC) ([5]; Trypticase Soy Broth) | MIC [6, 9] | MIC [6, 10] | IC50 [7] | MIC [5, 11] | MIC [4, 12] | MIC [5, 13] | SA/MH(MIC) ([6]; Mueller Hinton Broth) | further results
1 | C/C=C/C(C)=C/C1(C)SC(=O)C=C1O (stereo not shown) | 4.1% | 17.3 µg/mL (≈ 82.3 µM) | Neg | Neg | Neg | Neg | Neg | 52 µg/mL (≈ 247 µM) | 87 µg/mL (≈ 414 µM) | > 80 µg/mL | – | – | – | – | EF/MH(MIC) ([5]; Mueller Hinton Broth): Neg
2 | CC/C=C/C=C/C1(C)SC(=O)C=C1O (stereo not shown) | – | 16.9 µg/mL (≈ 80.4 µM) | Neg | Neg | – | Neg | Neg | 202 µg/mL (≈ 961 µM) | 85 µg/mL (≈ 404 µM) | > 80 µg/mL | 186 µg/mL (≈ 884 µM) | – | – | – | change in vivo at 60 mg/kg ([1]; 120 h, 60 mg/kg intraperitoneally, day5): 3.2%; MIC ([4]; Mueller Hinton Broth, read-out: Ecoli/MH(MIC)): 225 µg/mL (≈ 1070 µM)
3 | CCCC/C=C/C=C/C1(C)SC(=O)C=C1O (stereo not shown) | – | 25.7 µg/mL (≈ 108 µM) | Neg | Neg | Neg | – | – | – | 55 µg/mL (≈ 231 µM) | 59.4 ± 6.4 µg/mL (≈ 249 µM) | 78 µg/mL (≈ 327 µM) | 263 µg/mL (≈ 1100 µM) | 42 µg/mL (≈ 176 µM) | Neg | change in vivo at 60 mg/kg ([1]; 144 h): 11%
4 | CCCCCCC1(C)SC(=O)C=C1O (stereo not shown) | – | 16.5 ± 3.8 µg/mL (≈ 77 µM) | Neg | Neg | Neg | Neg | – | 48 µg/mL (≈ 224 µM) | 31 µg/mL (≈ 145 µM) | > 80 µg/mL | 98 µg/mL (≈ 457 µM) | – | 43 µg/mL (≈ 201 µM) | – | Deaths in weight loss screen ([1]; 60 mg/kg, day4, three mice): 60 mg/kg: 3 of 3 dead(day4)
5 | CCCCCCCCC1(C)SC(=O)C=C1O (stereo not shown) | – | 12.6 ± 4.4 µg/mL (≈ 52 µM) | Neg | Neg | Neg | – | – | – | 47 µg/mL (≈ 194 µM) | 17.6 ± 0.1 µg/mL (≈ 72.6 µM) | 16.9 µg/mL (≈ 69.7 µM) | 278 µg/mL (≈ 1150 µM) | 3.3 µg/mL (≈ 13.6 µM) | Neg | change in vivo at 30 mg/kg ([1]; 72 h): 4.8%
6 | CCCCCCCCC1(C)SC(=O)C(C)=C1O (stereo not shown) | 0% | 16.5 ± 5.7 µg/mL (≈ 64.3 µM) | Neg | Neg | Neg | – | – | 45 ± 2 µg/mL (≈ 175 µM) | 23.5 ± 0.4 µg/mL (≈ 91.6 µM) | 48 ± 1.4 µg/mL (≈ 187 µM) | 44 µg/mL (≈ 172 µM) | 290 µg/mL (≈ 1130 µM) | 105 µg/mL (≈ 409 µM) | – | change in vivo at 30 mg/kg ([1]; 24 h): 1%
